{"source": "patent US20260174730A1", "about": "“A COMPOSITION FOR TREATING PARKINSON'S DISEASE” (COUNCIL OF SCIENTIFIC & INDUSTRIAL RESEARCH, priority 2023, published 2026)", "origin": "cited, not measured here", "system": "oxygen-glucose deprivation in vitro"}
{"smiles": "C/C(=C\\COc1ccc2ccc(=O)oc2c1)CC[C@@H]1C(C)(C)[C@H]2CC[C@]1(C)O2", "note": "[farnesiferol C]", "values": [{"measurement": "neuroprotective activity", "value": "moderate neuroprotective activity"}]}
